Laboratory results: patent publication US9708368B2, “Linear peptide antibiotics” (priority 2012, dated 2017)
Values after ≈ are worked out from the molar mass of the structure shown. Like-named read-outs stand apart in the source and are kept apart here. Numbered stars: 1 amine (or outer) side, 2 acyl side, 3 side chain; on linkers, the order of the positions; unused ones are H or OH. Square brackets hold non-standard residues; d marks the D form. Peptide text beside a SMILES is read from it. * marks the point of attachment. ξ: configuration not given here. Biphenylcarbonyl(4'-Bu) = CCCCc1ccc(-c2ccc(C(=O)*)cc2)cc1; X1 = C[C@H](N*)B1OC2C[C@@H]3C[C@@H](C3(C)C)[C@]2(C)O1; Benzoyl(4-hexyl) = CCCCCCc1ccc(C(=O)*)cc1; NMeThr(3ξ) = CN[C@H](C(=O)O)C(C)O; X10 = CCCCc1ccc(-c2ccc(N*)cc2)cc1; Myristoyl = CCCCCCCCCCCCCC(=O)*; Thr(3ξ) = CC(O)[C@H](N)C(=O)O; X3 = CCCCCCCCCCCCS(=O)(=O)*; Decanoyl = CCCCCCCCCC(=O)*; boroAla = C[C@H](N*)B(O)O; Dab = NCC[C@H](N)C(=O)O; CO = O=C([*:1])[*:2]; βAla = NCCC(=O)O; ξA = CC(N)C(=O)O

Experiments:
[1] = target: S. aureus SPase (Staphylococcus aureus, UniProt P0A070); test: biochemical
Sequence of S. aureus SPase (P0A070 whole entry): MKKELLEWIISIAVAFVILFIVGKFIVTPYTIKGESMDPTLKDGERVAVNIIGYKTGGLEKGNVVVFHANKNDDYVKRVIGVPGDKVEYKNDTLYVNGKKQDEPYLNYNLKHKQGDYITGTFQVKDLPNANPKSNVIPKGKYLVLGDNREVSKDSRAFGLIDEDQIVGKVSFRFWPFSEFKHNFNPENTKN
Description: Full length His-tagged S. aureus SPase protein was expressed similarly from E. coli BL21(DE3) containing the plasmid pCDF1-SaSpsB and purified similarly to the E. coli protein with the following exceptions. […] Protein purity was judged to exceed 95% by visual inspection of SDS-PAGE followed by Comassie staining. All protein concentrations were determined by BCA assay.
Reactions were initiated by the addition of substrate to a final concentration of 20 μM. Reaction progress was monitored by measuring the increase in fluorescence signal (excitation at 314 nm, emission at 416 nm) using a SpectraMax M2 fluorescence microplate reader. […] Three-folder serial dilutions of test compounds, starting at 10 μM, were prepared in enzyme mix solution and incubated at room temperature for 10 minutes. Following this incubation, fluorogenic substrate was added to a final concentration of 20 μM and the increase in fluorescence, corresponding to substrate cleavage, was monitored continuously at room temperature for 1 hour. Initial reaction rates were calculated based on the rate of increase in fluorescence during the reaction. Reaction rates were plotted as a function of compound concentration, and IC50 values are determined nonlinear regression analysis (SoftMaxPro 5.4, Molecular Devices™) of the sigmoidal dose-response curve.

[2] = system: Methicillin Resistant Staphylococcus aureus strain USA 300 (NRS384)
Description: (§1) In vitro antimicrobial activity of each compound was determined by measuring minimal inhibitor concentrations (MICs) using the broth micro-dilution technique as approved by the Clinical and Laboratory Standards Institute (CLSI). […] Cells were inoculated onto Trypyticase Soy Agar or Luria Agar containing 16 ng/ml of anhydrotetracycline respectively and grown at 35° C. for 20 hours. Inocula suspensions were made by scraping cells into 1 mL of testing media (cation adjusted Mueller Hinton Broth supplemented with 0.002% v/v Tween-80) and diluting to a final OD600 nm of 0.01.
(§2) Test compounds were prepared in DMSO at a concentration of 10 mg/ml. […] Inocula suspensions were added to the two fold serial dilutions of test compounds to a final density of OD OD600 nm of 0.0005 and incubated stationary at 35° C. for 22 hours, after which the plates were examined visually.

[3] = system: Escherichia coli MC4100 IMP-4213 in which transcription of the SPase encoding gene is under control of a tetracycline inducible promoter; conditions: Method A; E. coli MC4100 IMP-4213 with decreased SPase expression; 35° C., 22 hours
Description: as §1, §2

[4] = target: E. coli SPase (Escherichia coli, UniProt P00803); test: Biochemical SPase activity assay (fluorogenic peptide substrate), E. coli enzyme
Sequence of E. coli SPase (P00803 whole entry): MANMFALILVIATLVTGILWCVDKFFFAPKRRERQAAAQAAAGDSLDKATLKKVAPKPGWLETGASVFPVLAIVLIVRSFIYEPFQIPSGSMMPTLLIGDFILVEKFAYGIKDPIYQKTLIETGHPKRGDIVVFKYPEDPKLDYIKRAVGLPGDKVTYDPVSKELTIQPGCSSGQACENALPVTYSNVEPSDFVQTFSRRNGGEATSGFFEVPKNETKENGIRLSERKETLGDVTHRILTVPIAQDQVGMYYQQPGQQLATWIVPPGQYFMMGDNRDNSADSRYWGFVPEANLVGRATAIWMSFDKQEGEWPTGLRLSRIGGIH

[5] = system: methicillin resistant Staphylococcus aureus (MRSA) strain USA300 (NRS384); conditions: Method B, 35° C., 22 hours
[6] = system: Escherichia coli strain MC4100 IMP-4213, which harbors an LptD mutation; conditions: Method B; E. coli MC4100 IMP-4213 (LptD mutation); 35° C., 22 hours
In short: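 Two-fold serial dilutions of compound inoculated at final OD600 0.0005, incubated static at 35 °C for 22 h, and growth read visually.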

[7] = Method A, MRSA USA 300 (NRS384), 35° C., 22 hours

Row | SMILES | IC50 [1] [µM] | MIC (μg/mL) S. aureus ([2]; USA 300, 22 h) [µg/mL] | MIC (μg/mL) E. coli [3] [µg/mL] | IC50 [4] [µM] | MIC (μg/mL) S. aureus [2, 7] [µg/mL] | MIC (μg/mL) S. aureus [5] [µg/mL] | MIC (μg/mL) E. coli [6] [µg/mL]
1 | CCCCCCCCCCCCCC(=O)N[C@H](CO)C(=O)N[C@H](C)C(=O)NCC(=O)N(C)[C@H](C(=O)N[C@@H](C)C(=O)N[C@@H](CC(C)C)C(=O)NC(C)C(=O)C(=O)NC)C(C)O (mixture of isomers) [Compound 110] | 0.15 | >64 | >64 | – | – | – | –
2 | CCCCCCCCCC(=O)N[C@@H](CC(C)C)C(=O)N[C@H](C(=O)N1CCC[C@@H]1C(=O)N[C@H](C(=O)N[C@@H](C)C(=O)N[C@@H](Cc1ccc(O)cc1)C(=O)NC(C)C(=O)C(=O)NC)C(C)O)C(C)O (mixture of isomers) [Compound 111] | 18 | – | >64 | 4.9 | >64 | – | –
3 | CCCCCCCCCCCCCC(=O)N[C@@H](CC(C)C)C(=O)N[C@H](C(=O)N1CCC[C@@H]1C(=O)N[C@H](C(=O)N[C@@H](C)C(=O)N[C@@H](Cc1ccc(O)cc1)C(=O)NC(C)C(=O)C(=O)NC)C(C)O)C(C)O (mixture of isomers) [Compound 112] | 3.4 | – | >64 | 31 | >64 | – | –
4 | CCCCCCc1ccc(C(=O)N[C@H](CO)C(=O)N[C@H](C)C(=O)NCC(=O)N(C)[C@H](C(=O)N[C@@H](C)C(=O)N[C@@H](CC(N)=O)C(=O)NCC=O)C(C)O)cc1 (stereo partly shown) [Compound 101] ({Benzoyl(4-hexyl)}-[dS][dA]G[NMeThr(3ξ)]ANG-aldehyde) | 0.086 | – | >64 | 11 | >64 | – | –
5 | CCCCCCCCCCCCCC(=O)N[C@@H](CC(C)C)C(=O)N[C@H](C(=O)N1CCC[C@@H]1C(=O)N[C@H](C(=O)N[C@@H](C)C(=O)N[C@@H](CC(N)=O)C(=O)NCC=O)C(C)O)C(C)O (stereo partly shown) [Compound 103] (Myristoyl-L[Thr(3ξ)][dP][Thr(3ξ)]ANG-aldehyde) | 0.11 | – | – | 11 | >64 | – | –
6 | CCCCCCCCCCCCCC(=O)N[C@H](CO)C(=O)N[C@H](C)C(=O)NCC(=O)N(C)[C@H](C(=O)N[C@@H](C)C(=O)N[C@@H](CC(C)C)C(=O)NCC=O)C(C)O (stereo partly shown) [Compound 104] (Myristoyl-[dS][dA]G[NMeThr(3ξ)]ALG-aldehyde) | 0.018 | – | – | 8.9 | 8 (≈ 10.2 µM) | – | –
7 | CCCCCCCCCCCCCC(=O)N[C@@H](CC(C)C)C(=O)N[C@H](C(=O)N1CCC[C@@H]1C(=O)N[C@H](C(=O)N[C@@H](C)C(=O)N[C@@H](Cc1ccc(O)cc1)C(=O)NCC=O)C(C)O)C(C)O (stereo partly shown) [Compound 105] (Myristoyl-L[Thr(3ξ)][dP][Thr(3ξ)]AYG-aldehyde) | – | – | >64 | – | >64 | – | –
8 | CCCCCCCCCC(=O)N[C@@H](CC(C)C)C(=O)N[C@H](C(=O)N1CCC[C@@H]1C(=O)N[C@H](C(=O)N[C@@H](C)C(=O)N[C@@H](Cc1ccc(O)cc1)C(=O)NC(C)C=O)C(C)O)C(C)O (stereo partly shown) [Compound 109] (Decanoyl-L[Thr(3ξ)][dP][Thr(3ξ)]AY[ξA]-aldehyde) | 4.9 | – | >64 | – | >64 | – | –
9 | CCCCc1ccc(-c2ccc(C(=O)NCCC(=O)N[C@@H](CCCCN)C(=O)N[C@H](C(=O)N[C@@H](C)C(=O)N[C@@H](CC(N)=O)C(=O)N[C@@H](C)B3OC4C[C@@H]5C[C@@H](C5(C)C)[C@]4(C)O3)C(C)O)cc2)cc1 (stereo partly shown) [Compound 121] ({Biphenylcarbonyl(4'-Bu)-βAla}-K[Thr(3ξ)]AN-X1) | – | – | 0.5 (≈ 0.529 µM) | – | 0.25 (≈ 0.265 µM) | – | –
10 | CCCCc1ccc(-c2ccc(NC(=O)N[C@@H](CCCCN)C(=O)N[C@H](C(=O)N[C@@H](C)C(=O)N[C@@H](CC(N)=O)C(=O)N[C@@H](C)B3OC4C[C@@H]5C[C@@H](C5(C)C)[C@]4(C)O3)[C@@H](C)O)cc2)cc1 (stereo partly shown) [Compound 263] ({X10-CO}-KTAN-X1) | 0.072 | – | – | 0.088 | – | 0.71 (≈ 0.799 µM) | 2 (≈ 2.25 µM)
11 | CCCCCCCCCCCCS(=O)(=O)N[C@@H](CCCCN)C(=O)N[C@H](C(=O)N[C@@H](C)C(=O)N[C@@H](CCCCN)C(=O)N[C@@H](C)B(O)O)C(C)O (stereo partly shown) [Compound 265] (X3-K[Thr(3ξ)]AK-boroAla) | 0.017 | – | – | 0.12 | – | 0.13 (≈ 0.173 µM) | 4 (≈ 5.33 µM)
12 | CCCCc1ccc(-c2ccc(CN[C@@H](CCN)C(=O)N[C@H](C(=O)N[C@@H](C)C(=O)N[C@@H](CCCCN)C(=O)N[C@@H](C)B3OC4C[C@@H]5C[C@@H](C5(C)C)[C@]4(C)O3)[C@@H](C)O)cc2)cc1 (stereo partly shown) [Compound 266] | 0.16 | – | – | 0.022 | – | 0.5 (≈ 0.591 µM) | 1 (≈ 1.18 µM)
13 | CCCCc1ccc(-c2ccc(C(=O)N[C@@H]3CN[C@H](C(=O)N[C@H](C(=O)N[C@@H](C)C(=O)N[C@@H](CCCCN)C(=O)N[C@@H](C)B4OC5C[C@@H]6C[C@@H](C6(C)C)[C@]5(C)O4)[C@@H](C)O)C3)cc2)cc1 (stereo partly shown) [Compound 268] | 0.081 | – | – | 1.6 | – | 1 (≈ 1.15 µM) | 16 (≈ 18.4 µM)
14 | CCCCc1ccc(-c2ccc(C(=O)N[C@H]3CN[C@H](C(=O)N[C@H](C(=O)N[C@@H](C)C(=O)N[C@@H](CCCCN)C(=O)N[C@@H](C)B4OC5C[C@@H]6C[C@@H](C6(C)C)[C@]5(C)O4)[C@@H](C)O)C3)cc2)cc1 (stereo partly shown) [Compound 269] | 0.34 | – | – | 1.8 | – | 0.5 (≈ 0.573 µM) | 8 (≈ 9.18 µM)
15 | CCCCc1ccc(-c2ccc(CNCCC(=O)N[C@H](C(=O)N[C@@H](C)C(=O)N[C@@H](CCCCN)C(=O)N[C@@H](C)B3O[C@@H]4C[C@@H]5C[C@@H](C5(C)C)[C@]4(C)O3)[C@@H](C)O)cc2)cc1 [Compound 270] | 0.12 | – | – | 0.65 | – | 0.5 (≈ 0.612 µM) | 8 (≈ 9.79 µM)
16 | CCCCc1ccc(-c2ccc(CNCCCC(=O)N[C@H](C(=O)N[C@@H](C)C(=O)N[C@@H](CCCCN)C(=O)N[C@@H](C)B3O[C@@H]4C[C@@H]5C[C@@H](C5(C)C)[C@]4(C)O3)[C@@H](C)O)cc2)cc1 [Compound 271] | 0.016 | – | – | 0.2 | – | 0.5 (≈ 0.602 µM) | 11 (≈ 13.2 µM)
17 | CCCCc1ccc(-c2ccc(C(=O)N3CCC(C(=O)N[C@H](C(=O)N[C@@H](C)C(=O)N[C@@H](CCCCN)C(=O)N[C@@H](C)B4O[C@@H]5C[C@@H]6C[C@@H](C6(C)C)[C@]5(C)O4)[C@@H](C)O)CC3)cc2)cc1 [Compound 272] | 0.05 | – | – | 1.3 | – | 0.71 (≈ 0.815 µM) | 32 (≈ 36.7 µM)
18 | CCCCc1ccc(-c2ccc(CN3CCC(C(=O)N[C@H](C(=O)N[C@@H](C)C(=O)N[C@@H](CCCCN)C(=O)N[C@@H](C)B4OC5C[C@@H]6C[C@@H](C6(C)C)[C@]5(C)O4)[C@@H](C)O)CC3)cc2)cc1 (stereo partly shown) [Compound 273] | 0.0098 | – | – | 0.47 | – | 0.088 (≈ 0.103 µM) | 8 (≈ 9.34 µM)
19 | CCCCc1ccc(-c2ccc(CNCCC[C@H](N)C(=O)N[C@H](C(=O)N[C@@H](C)C(=O)N[C@@H](CCCCN)C(=O)N[C@@H](C)B3OC4C[C@@H]5C[C@@H](C5(C)C)[C@]4(C)O3)[C@@H](C)O)cc2)cc1 (stereo partly shown) [Compound 274] | 0.035 | – | – | 1.7 | – | 0.13 (≈ 0.151 µM) | 16 (≈ 18.6 µM)
20 | CCCCc1ccc(-c2ccc(CNCCC[C@H](NC(C)=O)C(=O)N[C@H](C(=O)N[C@@H](C)C(=O)N[C@@H](CCCCN)C(=O)N[C@@H](C)B3OC4C[C@@H]5C[C@@H](C5(C)C)[C@]4(C)O3)[C@@H](C)O)cc2)cc1 (stereo partly shown) [Compound 275] | 0.11 | – | – | 1.5 | – | 1 (≈ 1.11 µM) | 32 (≈ 35.5 µM)
21 | CCCCc1ccc(-c2ccc(CNCC[C@H](N)C(=O)N[C@H](C(=O)N[C@@H](C)C(=O)N[C@@H](CCCCN)C(=O)N[C@@H](C)B3OC4C[C@@H]5C[C@@H](C5(C)C)[C@]4(C)O3)[C@@H](C)O)cc2)cc1 (stereo partly shown) [Compound 276] | 0.11 | – | – | 2 | – | 0.5 (≈ 0.591 µM) | 16 (≈ 18.9 µM)
22 | CCCCc1ccc(-c2ccc(CNCC[C@H](NC(C)=O)C(=O)N[C@H](C(=O)N[C@@H](C)C(=O)N[C@@H](CCCCN)C(=O)N[C@@H](C)B3OC4C[C@@H]5C[C@@H](C5(C)C)[C@]4(C)O3)[C@@H](C)O)cc2)cc1 (stereo partly shown) [Compound 277] | 0.11 | – | – | 0.68 | – | 0.5 (≈ 0.563 µM) | 32 (≈ 36 µM)
23 | CCCCc1ccc(-c2ccc(C(=O)NCCCC[C@H](NC(=O)[C@@H](N)CCN)C(=O)N[C@@H](C)C(=O)N[C@@H](CCCCN)C(=O)N[C@@H](C)B3OC4C[C@@H]5C[C@@H](C5(C)C)[C@]4(C)O3)cc2)cc1 (stereo partly shown) [Compound 278] (H-[Dab]K(Biphenylcarbonyl(4'-Bu))AK-X1) | 2.3 | – | – | 0.8 | – | 4 (≈ 4.51 µM) | 16 (≈ 18 µM)
24 | CCCCc1ccc(-c2ccc(C(=O)NCCCC[C@H](NC(=O)[C@H](CCN)NC(C)=O)C(=O)N[C@@H](C)C(=O)N[C@@H](CCCCN)C(=O)N[C@@H](C)B3OC4C[C@@H]5C[C@@H](C5(C)C)[C@]4(C)O3)cc2)cc1 (stereo partly shown) [Compound 279] (Ac-[Dab]K(Biphenylcarbonyl(4'-Bu))AK-X1) | 7.4 | – | – | 0.53 | – | 11 (≈ 11.8 µM) | 8 (≈ 8.61 µM)
